Laboratory results taken from ChEMBL document CHEMBL3785021, “Isatin analogs as novel inhibitors of Candida spp. β-carbonic anhydrase enzymes” (Bioorg Med Chem, 2016).

Columns and labels:
Carbonic anhydrase [1] = biological target: T1, Carbonic anhydrase (Candida albicans (strain SC5314 / ATCC MYA-2876) (Yeast), UniProt Q5AJ71); experiment: Inhibition of recombinant Candida albicans beta carbonic anhydrase NCE103 expressed in Escherichia coli preincubated for 15 mins by stopped-flow CO2 hydration assay
T1 sequence (Q5AJ71 whole entry): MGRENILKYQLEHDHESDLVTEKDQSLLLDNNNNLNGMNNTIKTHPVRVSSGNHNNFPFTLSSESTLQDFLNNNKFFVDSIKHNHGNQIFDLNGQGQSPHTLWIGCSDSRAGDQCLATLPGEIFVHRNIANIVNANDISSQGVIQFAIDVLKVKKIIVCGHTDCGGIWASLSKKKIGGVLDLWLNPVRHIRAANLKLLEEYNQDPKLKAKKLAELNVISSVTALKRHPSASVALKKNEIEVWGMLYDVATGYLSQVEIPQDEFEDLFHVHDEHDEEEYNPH

Carbonic anhydrase [2] = biological target: T2, Carbonic anhydrase (Candida glabrata CBS 138, UniProt Q6FTL6); experiment: Inhibition of recombinant Candida glabrata beta carbonic anhydrase NCE103 expressed in Escherichia coli preincubated for 15 mins by stopped-flow CO2 hydration assay; set-up: species or system Nakaseomyces glabratus
T2 sequence (Q6FTL6 whole entry): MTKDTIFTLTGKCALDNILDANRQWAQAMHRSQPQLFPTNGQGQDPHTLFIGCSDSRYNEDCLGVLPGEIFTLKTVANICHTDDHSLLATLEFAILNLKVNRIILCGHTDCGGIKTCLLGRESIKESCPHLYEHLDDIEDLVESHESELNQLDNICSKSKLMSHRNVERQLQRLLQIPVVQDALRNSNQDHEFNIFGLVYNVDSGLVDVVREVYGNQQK

Carbonic anhydrase 1 = Carbonic anhydrase 1 (Homo sapiens, UniProt P00915); experiment: Inhibition of recombinant human carbonic anhydrase 1 expressed in Escherichia coli preincubated for 15 mins by stopped-flow CO2 hydration assay
Carbonic anhydrase 2 = Carbonic anhydrase 2 (Homo sapiens, UniProt P00918); experiment: Inhibition of recombinant human carbonic anhydrase 2 expressed in Escherichia coli preincubated for 15 mins by stopped-flow CO2 hydration assay

Sequence of Carbonic anhydrase 1 (P00915 whole entry): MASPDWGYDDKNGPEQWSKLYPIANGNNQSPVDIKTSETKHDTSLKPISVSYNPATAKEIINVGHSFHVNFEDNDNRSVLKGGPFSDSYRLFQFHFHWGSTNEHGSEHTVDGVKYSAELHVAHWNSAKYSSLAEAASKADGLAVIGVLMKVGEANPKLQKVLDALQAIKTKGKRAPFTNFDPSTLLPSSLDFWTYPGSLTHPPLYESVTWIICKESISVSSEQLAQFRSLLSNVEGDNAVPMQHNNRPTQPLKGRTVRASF

Structure (SMILES)	Ki (Carbonic anhydrase [1]) [nM]	Ki (Carbonic anhydrase [2]) [nM]	Ki (Carbonic anhydrase 1) [nM]	Ki (Carbonic anhydrase 2) [nM]
NS(=O)(=O)c1cccc(/N=C2\C(=O)Nc3ccccc32)c1	98.1	85.1		
NS(=O)(=O)c1ccc(/N=C2\C(=O)Nc3ccc(F)cc32)cc1	85.2	21.6		
CN1C(=O)/C(=N\c2ccc(S(N)(=O)=O)cc2)c2cc([N+](=O)[O-])ccc21	21.7	16.3		
NS(=O)(=O)c1cccc(/N=C2\C(=O)Nc3ccc(OC(F)(F)F)cc32)c1	88	53.5		
Cc1ccc2c(c1)/C(=N/c1ccc(S(N)(=O)=O)cc1)C(=O)N2	128	29.7		
NS(=O)(=O)c1ccc(/N=C2\C(=O)Nc3ccc(OC(F)(F)F)cc32)cc1	53.6	45.1		
NS(=O)(=O)c1ccc(N=C2C(=O)Nc3ccccc32)cc1	86.5	48.4	422	523
CN1C(=O)/C(=N\c2ccc(S(N)(=O)=O)cc2)c2cc(Cl)ccc21	178	36.5		
CN1C(=O)/C(=N\c2ccc(S(N)(=O)=O)cc2)c2cc(F)ccc21	79.3	32.4		
Cc1ccc2c(c1)/C(=N/c1cccc(S(N)(=O)=O)c1)C(=O)N2	157	45.9		565
NS(=O)(=O)c1ccccc1/N=C1\C(=O)Nc2ccccc21	136	66.5		
NS(=O)(=O)c1ccccc1/N=C1\C(=O)Nc2ccc(Cl)cc21	65.7	58.9		
NS(=O)(=O)c1cccc(/N=C2\C(=O)Nc3ccc([N+](=O)[O-])cc32)c1	35.7	23.1		
CN1C(=O)/C(=N\c2ccc(S(N)(=O)=O)cc2)c2cc(Br)ccc21	156	37.1		
NS(=O)(=O)c1ccccc1/N=C1\C(=O)Nc2ccc(OC(F)(F)F)cc21	295	154		
NS(=O)(=O)c1ccc(/N=C2\C(=O)Nc3ccc(Cl)cc32)cc1	83.3	38.2		
Cc1ccc2c(c1)/C(=N/c1ccccc1S(N)(=O)=O)C(=O)N2	139	62.3		
CN1C(=O)/C(=N\c2ccc(S(N)(=O)=O)cc2)c2ccccc21	75.9	39.7		
NS(=O)(=O)c1cccc(/N=C2\C(=O)Nc3ccc(Cl)cc32)c1	54.8	50.1		
NS(=O)(=O)c1ccccc1/N=C1\C(=O)Nc2ccc(F)cc21	91.5	55.4		
NS(=O)(=O)c1ccc(/N=C2\C(=O)Nc3ccc([N+](=O)[O-])cc32)cc1	34.1	22.8		
Cc1ccc2c(c1)/C(=N/c1ccc(S(N)(=O)=O)cc1)C(=O)N2C	84.1	35.3		
NS(=O)(=O)c1cccc(/N=C2\C(=O)Nc3ccc(F)cc32)c1	61.3	45.1		
